Test results reported in PubChem BioAssay AID1963432 (Molecular Pharmacology Branch, DTP, NCI, 2024).

System: SYO-1 complex spheroid growth, percent test/control
Assay: Anticancer human tumor SYO-1 cell line growth inhibition [Asc];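 also: compound exposure lasted 7 days after spheroids grew 3 days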;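 as to viability, T/C: 100% = DMSO vehicle control viability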
Conditions: for IC50: curve of first compound; for viability, T/C: stronger effect = lower value
Description: Multicellular complex tumor spheroid response to apoptosis pathway targeting inhibitors Alrizomadlin, Pelcitoclax, and Dasminapant in combination with a variety of drugs and investigational agents in selected tumor cell lines
The MDM2 inhibitor alrizomadlin, the Bcl-2/Bcl-xL inhibitor pelcitoclax, and the IAPs inhibitor dasminapant were evaluated both individually and in combination with standard of care and investigational anticancer small molecules within a complex spheroid model of solid tumors. . Complex spheroids include a stromal component modeled by human endothelial cells (HUVEC) and fibroblasts modeled by human mesenchymal stem cells (MSCs). The concentration ranges selected for each drug and investigational agent were based upon clinically achievable concentrations if the clinical Cmax of the agent was known.
Compounds. The drugs and investigational agents: alrizomadlin (APG-115; NSC831270), pelcitoclax (APG-1252; NSC835773), dasminapant (APG-1387;NSC834197), TAK-243 (NSC785004), copanlisib (NSC809693), olaparib (NSC753686), talazoparib (NSC767125), cobimetinib (NSC 768068), eltanexor (KPT-8602, NSC 794443), abemaciclib (NSC 768073), sotorasib (NSC818433), adagrasib (NSC 831453), MRTX-1133 (NSC 836407), Iadademestat (ORY1001, NSC 806812), and RMC-4630 (NSC839698), were obtained from the NCI Developmental Therapeutics Program Chemical Repository. The FDA-approved anticancer drug set is available from the Developmental Therapeutics Program at https://dtp.cancer.gov/organization/dscb/obtaining/available plates.htm. […] The stock solutions were prepared in dimethyl sulfoxide (DMSO, Sigma-Aldrich, St. Louis, MO, cat. D2650) at 800-fold the tested concentration and stored at -70 degrees C prior to their use. All drugs and investigational agents were tested over a range starting from a high concentration at or near the clinical Cmax and decreasing in half-log increments. If the clinical Cmax for an agent had not been determined, the highest concentration tested was 10 microM.
The patient-derived cancer (PDC) cell lines include five colon adenocarcinomas: 186277-243-T-J2-PDC, 616215-338-R-J1-PDC, 439559-082-T-J2-PDC, 463943-066-T-J2-PDC, and 519858-162-T-J1-PDC; three pancreatic carcinomas: 323965-272-R-J2-PDC, 521955-158-R6-J3-PDC, and 521955-158-R2-J5-PDC; two uterine sarcomas: 327498-152-R-J2-PDC and 993429-296-R-J1-PDC; two rhabdomyosarcomas: 755483-174-R-J1-PDC and 772245-204-R-J1-PDC; two soft tissue sarcomas: 126254-015-R-J1-PDC and 494315-158-R-J1-PDC; two malignant fibrous histiocytomas: 317291-083-R-J1-PDC and 596521-263-R-J1-PDC; two breast carcinomas: 171881-019-R-J1-PDC and 885512-296-R-J2-PDC; and one ovarian carcinoma: 6556581-035-R-J-PDC were obtained from the NCI PDMR, (https://pdmr.cancer.gov). The established cell lines HSSY-2 synovial sarcoma (RRID:CVCL 8719), SYO-1 synovial sarcoma (RRID:CVCL_7146), MPNST malignant peripheral neural sheath tumor were obtained from the Sloan Kettering Institute. The following established cell lines were purchased from the American Type Culture Collection (ATCC, Manassas, VA), Sor the received from the NCI repository:, PANC-1 pancreatic carcinoma (CRL-1469, RRID:CVCL_0480), OVCAR-5 ovarian carcinoma (RRID:CVCL_1628), OVCAR-8 ovarian carcinoma (RRID:CVCL_1629), , MCF-7 breast carcinoma (CRL-12584, RRID:CVCL_0031), MDA-MB-231 breast carcinoma (CRL-12532, RRID:CVCL_0062), NCI-H1876 small cell lung carcinoma (CRL-5902, RRID:CVCL_1503), NCI-H510A small cell lung carcinoma (HTB-184, RRID:CVCL_1565), NCI-H1417 (CRL-5869, RRID:CVCL_1469), and NCI-H196 small cell lung carcinoma (CRL-5823, RRID:CVCL_1509). Dr. Peter Houghton (Greehey Children's Cancer Research Institute, University of Texas Health Science Center, San Antonio, TX) provided Rh-18 rhabdomyosarcoma (RRID:CVCL_1659). Pooled donor human umbilical vein endothelial cells (HUVEC, Lonza, cat. CC-2519) and human mesenchymal stem cells (hMSC, Lonza, cat. PT-2501) were purchased from Lonza (Walkersville, MD).
Cell Culture. […]

[1] = second compound 0.00949 µM, first compound 0.0316 µM
[2] = second compound 0.00949 µM, first compound 0.1 µM
[3] = second compound 0.03 µM, first compound 0.0316 µM
[4] = second compound 0.03 µM, first compound 0.1 µM
[5] = second compound 0.0949 µM, first compound 0.0316 µM
[6] = second compound 0.0949 µM, first compound 0.1 µM
[7] = second compound 0.3 µM, first compound 0.0316 µM
[8] = second compound 0.3 µM, first compound 0.1 µM
[9] = second compound 0.949 µM, first compound 0.0316 µM
[10] = second compound 0.949 µM, first compound 0.1 µM
[11] = second compound 3 µM, first compound 0.0316 µM
[12] = second compound 3 µM, first compound 0.1 µM

Cn1ncnc1[C@H]1c2n[nH]c(=O)c3cc(F)cc(c23)N[C@@H]1c1ccc(F)cc1 + CCN1C(C(=O)NC23CCC(C(=O)O)(CC2)CC3)C(c2cccc(Cl)c2F)C2(C(=O)Nc3cc(Cl)ccc32)C12CCCCC2
IC50 (second compound 0.00949 µM): 16.8 nM | IC50 (second compound 0.03 µM): 6.16 nM | IC50 (second compound 0.0949 µM): 1.56 nM | IC50 (second compound 0.3 µM): < 0.316 nM | IC50 (second compound 0.949 µM): < 0.316 nM | IC50 (second compound 3 µM): < 0.316 nM | viability, T/C (second compound 0.00949 µM, first compound 0.000316 µM): 112% | viability, T/C (second compound 0.00949 µM, first compound 0.001 µM): 104% | viability, T/C (second compound 0.00949 µM, first compound 0.00316 µM): 96.2% | viability, T/C (second compound 0.00949 µM, first compound 0.01 µM): 78.7% | viability, T/C [1]: 14.9% | viability, T/C [2]: 7.79% | viability, T/C (second compound 0.03 µM, first compound 0.000316 µM): 104% | viability, T/C (second compound 0.03 µM, first compound 0.001 µM): 98.2% | viability, T/C (second compound 0.03 µM, first compound 0.00316 µM): 87.5% | viability, T/C (second compound 0.03 µM, first compound 0.01 µM): 22.8% | viability, T/C [3]: 6.44% | viability, T/C [4]: 4.46% | viability, T/C (second compound 0.0949 µM, first compound 0.000316 µM): 90.8% | viability, T/C (second compound 0.0949 µM, first compound 0.001 µM): 66.6% | viability, T/C (second compound 0.0949 µM, first compound 0.00316 µM): 23.7% | viability, T/C (second compound 0.0949 µM, first compound 0.01 µM): 7.28% | viability, T/C [5]: 6.03% | viability, T/C [6]: 3.35% | viability, T/C (second compound 0.3 µM, first compound 0.000316 µM): 15.8% | viability, T/C (second compound 0.3 µM, first compound 0.001 µM): 9.59% | viability, T/C (second compound 0.3 µM, first compound 0.00316 µM): 5.54% | viability, T/C (second compound 0.3 µM, first compound 0.01 µM): 4.13% | viability, T/C [7]: 2.99% | viability, T/C [8]: 2.63% | viability, T/C (second compound 0.949 µM, first compound 0.000316 µM): 3.8% | viability, T/C (second compound 0.949 µM, first compound 0.001 µM): 2.11% | viability, T/C (second compound 0.949 µM, first compound 0.00316 µM): 2.99% | viability, T/C (second compound 0.949 µM, first compound 0.01 µM): 1.27% | viability, T/C [9]: 1.77% | viability, T/C [10]: 1.2% | viability, T/C (second compound 3 µM, first compound 0.000316 µM): 10.9% | viability, T/C (second compound 3 µM, first compound 0.001 µM): 1.49% | viability, T/C (second compound 3 µM, first compound 0.00316 µM): 2.04% | viability, T/C (second compound 3 µM, first compound 0.01 µM): 1.73% | viability, T/C [11]: 1.53% | viability, T/C [12]: 1.16%

O=C(c1cc(Cc2n[nH]c(=O)c3ccccc23)ccc1F)N1CCN(C(=O)C2CC2)CC1 + CCN1C(C(=O)NC23CCC(C(=O)O)(CC2)CC3)C(c2cccc(Cl)c2F)C2(C(=O)Nc3cc(Cl)ccc32)C12CCCCC2
IC50 (second compound 0.00949 µM): 1840 nM | IC50 (second compound 0.03 µM): 1130 nM | IC50 (second compound 0.0949 µM): 155 nM | IC50 (second compound 0.3 µM): < 31.6 nM | IC50 (second compound 0.949 µM): < 31.6 nM | IC50 (second compound 3 µM): < 31.6 nM | viability, T/C [1]: 104% | viability, T/C [2]: 93.4% | viability, T/C (second compound 0.00949 µM, first compound 0.316 µM): 99.4% | viability, T/C (second compound 0.00949 µM, first compound 1 µM): 92% | viability, T/C (second compound 0.00949 µM, first compound 3.16 µM): 12.9% | viability, T/C (second compound 0.00949 µM, first compound 10 µM): 4.28% | viability, T/C [3]: 102% | viability, T/C [4]: 89.3% | viability, T/C (second compound 0.03 µM, first compound 0.316 µM): 92.4% | viability, T/C (second compound 0.03 µM, first compound 1 µM): 55.2% | viability, T/C (second compound 0.03 µM, first compound 3.16 µM): 6.53% | viability, T/C (second compound 0.03 µM, first compound 10 µM): 4.33% | viability, T/C [5]: 71.7% | viability, T/C [6]: 54.1% | viability, T/C (second compound 0.0949 µM, first compound 0.316 µM): 40.9% | viability, T/C (second compound 0.0949 µM, first compound 1 µM): 12.4% | viability, T/C (second compound 0.0949 µM, first compound 3.16 µM): 4.71% | viability, T/C (second compound 0.0949 µM, first compound 10 µM): 3.12% | viability, T/C [7]: 9.88% | viability, T/C [8]: 9.34% | viability, T/C (second compound 0.3 µM, first compound 0.316 µM): 8.44% | viability, T/C (second compound 0.3 µM, first compound 1 µM): 4.25% | viability, T/C (second compound 0.3 µM, first compound 3.16 µM): 4.23% | viability, T/C (second compound 0.3 µM, first compound 10 µM): 2.9% | viability, T/C [9]: 1.89% | viability, T/C [10]: 1.57% | viability, T/C (second compound 0.949 µM, first compound 0.316 µM): 3.08% | viability, T/C (second compound 0.949 µM, first compound 1 µM): 2.92% | viability, T/C (second compound 0.949 µM, first compound 3.16 µM): 2.34% | viability, T/C (second compound 0.949 µM, first compound 10 µM): 1.51% | viability, T/C [11]: 1.11% | viability, T/C [12]: 1.24% | viability, T/C (second compound 3 µM, first compound 0.316 µM): 2.68% | viability, T/C (second compound 3 µM, first compound 1 µM): 1.1% | viability, T/C (second compound 3 µM, first compound 3.16 µM): 1.22% | viability, T/C (second compound 3 µM, first compound 10 µM): 1%
